# Patent publication US20150246071A1, “TREATMENT COMPOSITIONS” (REOXCYN DISCOVERIES GROUP, INC., priority 2012, published 2015)
# Columns and labels:
# [1] = test system: NRF2; experiment: Western Blot validation of NRF2 nuclear accumulation in HMVEC-L; type: cell-based, human; conditions: ASEA 1% at 30, 60, 120 min, H2O2 30 min
# Method: (§1) 8. A Western Blot analysis was done on extra-nuclear and intra-nuclear fractions, separated by differential centrifugation, of serum starved HMVEC-L cell cultures exposed to <1% of a composition of the invention compared with a positive hydrogen peroxide control to determine phosphorylation events (oxidant action) in the extra-nuclear fraction and NRF2 (antioxidant transcription) in the intra-nuclear fraction at 0, 30, 60, 90 and 120 min intervals.
# (§2) Experimental Methods for Western Blot Validation of NRF2 Nuclear Accumulation: HMVEC-L were treated with 1% of a composition of the invention, nuclear extracts were separated through centrifugal differentiation from the extra-nuclear cytosol at 30, 60 and 120 min and subjected to Western Blot analysis for NRF2. In the Western blot experiment the extra-nuclear fraction was probed for phosphorylated proteins using a combination of anti-phospho serine, threonine and tyrosine antibodies. Virtually all cellular processes are regulated by posttranslational modifications and protein phosphorylation is a prevalent mechanism. […]
# [2] = test system: phosphorylated proteins (extra-nuclear fraction); experiment: Western Blot of protein phosphorylation in extra-nuclear fraction of HMVEC-L; type: cell-based, human; conditions: composition 1%, H2O2 positive control
# Method: as §1, §2
structure (smiles),measurement,setting,value
"OO [H2O2, Hydrogen peroxide]",NRF2 levels in nuclear extracts (Western Blot),[1],did not increase
same,phosphorylation of extra-nuclear protein (Western Blot),[2],marked increase
